The values that follow come from BindingDB's records for doi:10.1002/cbic.201600636 (The University of Sydney, 2017).

One assay concerns the target Lipoxygenase (Solanum tuberosum, UniProt O49150). Nature of the assay: Colorimetric 5-LO Assay. As to the method: A colorimetric 5-LO assay kit (Lipoxygenase Inhibitor Screening Assay Kit) and potato 5-LO isolate were purchased from Cayman Chemicals (Ann Arbor, MI). 5-LO inhibition assay was performed according to the instruction manuals. All samples were dissolved in dimethyl sulfoxide, except for 1 and 2, which were dissolved in the assay buffers provided. All assays were performed in triplicate, and errors were calculated as standard deviation.

The target of a further assay is Histone deacetylase 1 (Homo sapiens, UniProt Q13547). Nature of the assay: Fluorometric Activity Assay. On the procedure:
A FLUOR DE LYS fluorometric activity assay kit (HDAC source: HeLa cell nuclear extract) and a FLUOR DE LYS HDAC1 fluorometric drug discovery assay kit (HDAC source: human recombinant HDAC1) were purchased from Enzo Life Sciences (Farmingdale, NY). HDAC inhibition assay was performed according to the instruction manuals. All samples were dissolved in dimethyl sulfoxide, except for 1 and 2, which were dissolved in the assay buffers provided. All assays were performed in triplicate, and errors were calculated as standard deviation.

Histone deacetylase 1, sequence (Q13547 whole entry): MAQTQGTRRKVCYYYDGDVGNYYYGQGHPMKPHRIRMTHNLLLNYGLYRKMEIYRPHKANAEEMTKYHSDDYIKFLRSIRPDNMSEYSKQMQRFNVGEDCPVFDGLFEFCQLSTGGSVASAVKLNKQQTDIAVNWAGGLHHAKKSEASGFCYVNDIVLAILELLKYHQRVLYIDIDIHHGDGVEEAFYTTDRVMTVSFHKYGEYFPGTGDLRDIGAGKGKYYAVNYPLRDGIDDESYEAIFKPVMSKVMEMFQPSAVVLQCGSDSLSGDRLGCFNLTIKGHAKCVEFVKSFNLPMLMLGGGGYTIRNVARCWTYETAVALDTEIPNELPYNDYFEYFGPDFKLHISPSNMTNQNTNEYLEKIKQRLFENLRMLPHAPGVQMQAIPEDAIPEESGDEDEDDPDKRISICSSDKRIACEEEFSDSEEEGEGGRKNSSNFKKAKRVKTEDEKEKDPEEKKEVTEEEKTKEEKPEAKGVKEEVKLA
Lipoxygenase, sequence (O49150 whole entry): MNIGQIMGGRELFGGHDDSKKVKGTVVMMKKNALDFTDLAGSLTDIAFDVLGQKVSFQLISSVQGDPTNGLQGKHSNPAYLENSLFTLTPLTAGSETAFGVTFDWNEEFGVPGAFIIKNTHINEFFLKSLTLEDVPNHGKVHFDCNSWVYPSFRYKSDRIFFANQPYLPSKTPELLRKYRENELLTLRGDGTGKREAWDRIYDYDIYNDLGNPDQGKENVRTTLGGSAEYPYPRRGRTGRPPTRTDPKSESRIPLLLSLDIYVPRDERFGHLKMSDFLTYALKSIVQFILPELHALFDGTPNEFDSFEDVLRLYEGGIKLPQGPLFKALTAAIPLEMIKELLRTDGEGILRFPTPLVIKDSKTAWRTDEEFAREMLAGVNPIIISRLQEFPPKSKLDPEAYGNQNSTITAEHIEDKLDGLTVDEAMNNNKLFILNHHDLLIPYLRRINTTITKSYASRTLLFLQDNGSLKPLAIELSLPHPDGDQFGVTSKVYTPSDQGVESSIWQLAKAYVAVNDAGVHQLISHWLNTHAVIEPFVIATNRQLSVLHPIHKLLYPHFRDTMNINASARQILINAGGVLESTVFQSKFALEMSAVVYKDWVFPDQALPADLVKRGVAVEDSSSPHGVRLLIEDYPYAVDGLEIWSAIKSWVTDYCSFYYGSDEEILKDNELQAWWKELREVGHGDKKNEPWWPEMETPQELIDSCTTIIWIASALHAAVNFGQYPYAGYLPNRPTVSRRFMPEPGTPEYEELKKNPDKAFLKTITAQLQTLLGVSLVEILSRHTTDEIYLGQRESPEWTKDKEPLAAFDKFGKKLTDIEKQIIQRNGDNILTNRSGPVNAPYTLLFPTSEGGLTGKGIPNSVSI

As a reminder, the IC50 is the midpoint of a concentration-inhibition curve. Lower therefore signals greater potency in that assay. Regarding `O=C(CCCCCN1C(=O)c2cccc3cccc(c23)C1=O)NO` [6-(1,3-Dioxo-1H,3H-benzo[de]isoquinolin-2-yl)-hexanoic acid hydroxyamide], at Lipoxygenase, the midpoint of inhibition, the IC50, lay at 212 µM.

Turning to `CC(=O)N(O)CCCCCNC(=O)CCC(=O)N(O)CCCCCNC(=O)CCC(=O)N(O)CCCCCN1C(=O)c2cccc3cccc(c23)C1=O` [BIQD-substituted compound, S1], the IC50 against Histone deacetylase 1 worked out at 258 µM.

Turning to `CC(=O)N(O)CCCCCN1C(=O)c2cccc3cccc(c23)C1=O` [BIQD-substituted compound, S2], the IC50 against Lipoxygenase amounted to 58.9 µM; against Histone deacetylase 1 it was 172 µM.

Take `CC(=O)N(O)CCCCCNC(=O)CCC(=O)N(O)CCCCCN1C(=O)c2cccc3cccc(c23)C1=O` [BIQD-substituted compound, S5]: the 50% inhibitory concentration (IC50) at Lipoxygenase worked out at 2340 µM; on Histone deacetylase 1 it was 314 µM.

In the case of `CC(=O)N(O)C/C=C/c1cccc(Oc2ccccc2)c1` [N-(3-phenoxycinnamyl)acetohydroxamic acid], at Lipoxygenase, the 50% inhibitory concentration (IC50) was 17.1 µM.
